For data set [1] the following is noted: 101.33 kPa, Liquid, Vibrating tube method.
A short description of data set [2]: refractive index (Na D-line) (dimensionless). The conditions noted are these: 101.33 kPa, Liquid, Standard Abbe refractometry.

± gives the expanded uncertainty stated by the source.

`CCCCCC[n+]1ccn(C)c1.O=S(=O)([N-]S(=O)(=O)C(F)(F)F)C(F)(F)F`: in data set [1] (298.15 K), the mass density was determined as 1371.99 ± 0.55 kg/m3. The refractive index in data set [2] (298.15 K) worked out at 1.43016 ± 0.00037.
For the compound `CCCCn1cc[n+](C)c1.O=S(=O)([O-])C(F)(F)F` [1-butyl-3-methylimidazolium trifluoromethanesulfonate], in data set [1] (298.15 K), the mass density is reported as 1303.63 ± 0.49 kg/m3. Moreover, the refractive index in data set [2] (298.15 K) worked out at 1.43895 ± 0.00037.
Take `CCCCCCn1cc[n+](C)c1.O=S(=O)([O-])C(F)(F)F` [1-hexyl-3-methylimidazolium trifluoromethanesulfonate]: in data set [1] (303.15 K), the mass density came out at 1232.55 ± 0.43 kg/m3. Also, in data set [2] (303.15 K), the refractive index is reported as 1.43926 ± 0.00037.
Consider `C1CCCCC1` [cyclohexane], for which the mass density in data set [1] (298.15 K) turned out to be 773.88 ± 0.13 kg/m3. For the same compound, the refractive index in data set [2] (298.15 K) worked out at 1.42356 ± 0.00031.
`CCCCCCC` [heptane]: the mass density in data set [1] (298.15 K) worked out at 679.57 ± 0.18 kg/m3. For the same compound, in data set [2] (298.15 K), the refractive index was 1.38529 ± 0.00033.
For the compound `Cc1ccccc1` [toluene], the mass density in data set [1] (298.15 K) amounted to 862.23 ± 0.1 kg/m3. The refractive index in data set [2] (298.15 K) was 1.49398 ± 0.00031.
